According to US5571799A, “(2'-5') oligoadenylate analogues useful as inhibitors of host-v5.-graft response” (Basco, Ltd., priority 1994, dated 1996):
“Also recorded” adds a separate entry of the source.

What was measured:
T-suppressors = test: Immune system of monkeys: T-suppressors, flow cytofluorografic analysis; format: in vivo, Macaque Rh. monkeys
Protocol: (§1) Immunosuppressive activity of the prototype 2'-5'A3 and two analogues (2'-5')A2 Ar-epoxy and (2'-5')A2 A^l-epoxy were investigated in monkeys. The experiments were performed on 4 year-old Macaque Rh. monkeys. The levels of the principal subpopulations of T-lymphocytes, IgA, IgG, IgM and the amount of α- and γ-interferon and interleukin II after administration (2'-5')olygoadenylate and its analogies at the concentration of 50 and 25 μg/kg of the body weight was investigated.
(§2) FLOW CYTOFLUOROGRAFIC ANALYSIS OF LYMPHOCYTE SUBSETS
(§3) Blood samples (100 μl of whole blood) were placed into a 12×17 tube. To these cells 20 μl of purified monoclonal antibodies were added with specificity for human cytotoxic/suppressor cells anti-Leu-2a (CD8), human helper/inducer anti-Leu-3a (CD4) and FITC conjugated monoclonal antibodies with specificity for natural killer cells-anti-Leu11c (CD16) (Becton Dickinson, San Jose). After 30 minutes incubation on ice, the cells were washed once and 20 μl of goat-antimouse chain phycoerythrin (Sigma P1286) conjugate were added to the tube with anti-Leu-2a and anti-Leu-3a monoclonal antibodies.
(§4) After erythrocyte lysing with FACS lysing solution (Becton Dickinson, San Jose) the cells were analyzed on FACScan flow cytometer (Becton Dickinson, San Jose) with scatter gate set on lymphocyte fraction.

[1] = tested on: Type I and II herpes virus; conditions: cited from earlier work
T-helpers = test: Immune system of monkeys: T-helpers, flow cytofluorografic analysis; format: in vivo, Macaque Rh. monkeys
Protocol: as §1, with “The” for “Immunosuppressive activity of the prototype 2'-5'A3 and two analogues (2'-5')A2 Ar-epoxy and (2'-5')A2 A^l-epoxy were investigated in monkeys. The”
as §2, §3, §4

[2] = tested on: T-lymphocytes (murine splenocytes) stimulated with Concanavalin A; test: In vitro blast-transformation of murine lymphocytes, Con A (T-lymphocyte mitogen), [3H]-thymidine; format: cell-based, mouse (CBA); conditions: Con A 5 μg/ml; 5 × 10^-6 M; control 22,296
Excerpt: (§5) The immune reactions in an organism begins with the division of lymphocytes. In vitro investigation of the lymphocyte blast-transformationreaction under the influence of mitogens makes it possible to use this model system to select chemically synthesized 2'-5'A3 analogues which suppress division of lymphocytes. Using Concanavalin A and lipopolysaccharide as mitogens, the effect of analogues on the division of T- and β-lymphocytes may be investigated.
CBA mice 8-10 weeks old were used for these experiments. A suspension of mouse splenocytes were obtained by gently teasing spleens with forceps. […] Cultures were maintained in 5% CO2 at 37° C. One μCi of ^3 H-thymidine (Isotop®) was added to each well 4 hours before the end of the incubation period. Incorporation of ^3 H-thymidine into cellular DNA was determined by liquid scintillation counting using standard techniques. Oligoadenylate was added to the medium at the beginning of culturing to achieve the final concentration.
(§6) (Con A being a mitogen for T-lymphocytes and LPS being a mitogen for β-lymphocytes).

[3] = tested on: β-lymphocytes (murine splenocytes) stimulated with lipopolysaccharide; test: In vitro blast-transformation of murine lymphocytes, LPS (β-lymphocyte mitogen), [3H]-thymidine; format: cell-based, mouse (CBA); conditions: LPS 0.1 μg/ml; 5 × 10^-6 M; control 27,133
Excerpt: as §5
CBA mice 8-10 weeks old were used for these experiments. A suspension of mouse splenocytes were obtained by gently teasing spleens with forceps. Lymphocytes cultivated in flat-bottomed 96-well plates (Linbro) in RPMI-1640 medium (Flow Lab.) were supplemented with 2 mM 1-glutamine, 10 μg/ml gentamicin, 10^-5 M 2-mercaptoethanol and 10% heat inactivated fetal calf serum (Flow Lab). Cultures were maintained in 5% CO2 at 37° C. One μCi of ^3 H-thymidine (Isotop®) was added to each well 4 hours before the end of the incubation period. Incorporation of ^3 H-thymidine into cellular DNA was determined by liquid scintillation counting using standard techniques. Oligoadenylate was added to the medium at the beginning of culturing to achieve the final concentration.
as §6

T-killers and T-helpers = test: Immunosuppressive activity in vivo in monkeys; parameters: species or system Macaque Rh. monkeys; conditions: monkeys, IV, disodium salt
Protocol: as §1, with “The” for “Immunosuppressive activity of the prototype 2'-5'A3 and two analogues (2'-5')A2 Ar-epoxy and (2'-5')A2 A^l-epoxy were investigated in monkeys. The”
as §2, §3, §4

[4] = tested on: snake venom phosphodiesterase; test: Stability to the action of snake venom phosphodiesterase; format: in vitro ADME
Protocol: Determination of (2'-5')oligoadenylates and analogues stability to the action of snake venom phosphodiesterase
Upon entering an organism 2'-5'A3 and the analogues are quickly hydrolyzed to monomeric compound(s). Prior to administration of 2'-5'A3 analogues in vivo to animal, it was considered necessary to determine their stability towards snake venom phosphodiesterase in comparison to the parent 2'-5'A3.
The solution of 3 μg of the snake venom phosphodiesterase (Boehringer Mannheim cat. No. 108260) in 30 μl of 0.1 M Tris HCl buffer, containing 0.002 M MgCl2 (pH 8.78) is added to the solution of 4-5·10^-7 M trimer in 100 μl of the same buffer. The solution was left standing at 20° C. At regular intervals, 10 μl samples were taken, heated at 90° C. for 1 minute and preparative thin layer chromatography was performed on the Silufole™ plates, using a 7:1:2 mixture of isopropanol:aqueous ammonia:water.
The spot, corresponding to the initial trimer, was cut out, the substance was extracted with 2 ml of 0.5% solution of the dodecylsulfate sodium salt solution for 2 hours, and the optical density of the solution was determined at 260 nm.

Adenylyl (2'-5')adenylyl (2'-5')-9-(2,3-anhydro-β-D-lyxofuranosyl) adenine disodium salt [(2'-5')A2 A^l-epoxy]
T-suppressors (T-suppressors; Table 8, single IV 25 μg/kg, day 2, control (day before) 53.1): 44%
T-suppressors (T-suppressors; Table 8, single IV 25 μg/kg, day 4, control (day before) 53.1): 43.4%
T-suppressors (T-suppressors; Table 9, single IV 50 μg/kg, day 2, control (day before) 42): 44%
T-suppressors (T-suppressors; Table 9, single IV 50 μg/kg, day 4, control (day before) 42): 43.4%
activity against Type I and II herpes virus, in words [1]: active against the Type I and II herpes virus
T-helpers (T-helpers; Table 8, single IV 25 μg/kg, day 2, control (day before) 26.2): 27%
T-helpers (T-helpers; Table 8, single IV 25 μg/kg, day 4, control (day before) 26.2): 25.3%
T-helpers (T-helpers; Table 9, single IV 50 μg/kg, day 2, control (day before) 22): 20.5%
T-helpers (T-helpers; Table 9, single IV 50 μg/kg, day 4, control (day before) 22): 18.4%
DNA synthesis at [^3 H]-thymidine [incorporated counts/min.] [2]: 15,749 counts/min.
DNA synthesis at [^3 H]-thymidine [incorporated counts/min.] [3]: 10,828 counts/min.
immunosuppressive activity, in words (T-killers and T-helpers): considerably lower than that exhibited by (2'-5')A2 Ar-epoxy; also recorded: exhibit immunosuppressive activity in the in vivo experiments
immunosuppressive activity, in words (T-killers and T-helpers; listed as (2 -5')A2 A^l-epoxy): strong immunosuppressive activity specifically against T-killers and T-helpers
T 1/2 (time for optical density of initial trimer to decrease by 50%) ([4]; 20° C., 0.1 M Tris HCl, 0.002 M MgCl2, pH 8.78): 10.5 h
stability / resistance to phosphodiesterase ([4]; in words): significantly more resistant towards hydrolysis by phosphodiesterase
